Experimental data from ChEMBL document CHEMBL3046389, “Synthesis and biological evaluation of novel hydroquinone dimethyl ethers as potential anticancer and antimicrobial agents” (2013).

Assays:
Assay type in all cases: functional
OVCAR-5 = assay: Growth inhibition of Homo sapiens (human) OVCAR5 cells at 10 uM after 48 hr by SRB assay; conditions: OVCAR-5, 48 h, read-out: GI
DU-145 = assay: Growth inhibition of Homo sapiens (human) DU145 cells at 10 uM after 48 hr by SRB assay; conditions: DU-145, 48 h, read-out: GI
MDA-MB-435 = assay: Anticancer activity against Homo sapiens (human) MDA-MB-435 cells after 48 hr by SRB assay; conditions: MDA-MB-435, 48 h; for CC50: read-out: LC50 (the source's name)
NCI-H522 = assay: Growth inhibition of Homo sapiens (human) NCI-H522 cells at 10 uM after 48 hr by SRB assay; conditions: NCI-H522, 48 h, read-out: GI
COLO 205 = assay: Growth inhibition of Homo sapiens (human) COLO205 cells at 10 uM after 48 hr by SRB assay; conditions: COLO 205, 48 h, read-out: GI
OVCAR-4 = assay: Growth inhibition of Homo sapiens (human) OVCAR4 cells at 10 uM after 48 hr by SRB assay; conditions: OVCAR-4, 48 h, read-out: GI
SK-MEL-28 [1] = assay: Growth inhibition of Homo sapiens (human) SK-MEL-28 cells at 10 uM after 48 hr by SRB assay; conditions: SK-MEL-28, 48 h, read-out: GI
RPMI-8226 = assay: Growth inhibition of Homo sapiens (human) RPMI8226 cells at 10 uM after 48 hr by SRB assay; conditions: RPMI-8226, 48 h, read-out: GI
EKVX = assay: Growth inhibition of Homo sapiens (human) EKVX cells at 10 uM after 48 hr by SRB assay; conditions: read-out: GI
A498 = assay: Growth inhibition of Homo sapiens (human) A498 cells at 10 uM after 48 hr by SRB assay; conditions: A498, 48 h, read-out: GI
SK-MEL-5 = assay: Growth inhibition of Homo sapiens (human) SK-MEL-5 cells at 10 uM after 48 hr by SRB assay; conditions: SK-MEL-5, 48 h, read-out: GI
NCI-H226 [2] = assay: Anticancer activity against Homo sapiens (human) NCI-H226 cells after 48 hr by SRB assay; conditions: NCI-H226, 48 h; for CC50: read-out: LC50 (the source's name)
SK-MEL-28 [3] = assay: Anticancer activity against Homo sapiens (human) SK-MEL-28 cells after 48 hr by SRB assay; conditions: SK-MEL-28, 48 h
CAKI-1 = assay: Growth inhibition of Homo sapiens (human) CAKI-1 cells at 10 uM after 48 hr by SRB assay; conditions: CAKI-1, 48 h, read-out: GI
NCI/ADR-RES = assay: Growth inhibition of Homo sapiens (human) NCI/ADR-RES cells at 10 uM after 48 hr by SRB assay; conditions: read-out: GI
SF-268 = assay: Growth inhibition of Homo sapiens (human) SF268 cells at 10 uM after 48 hr by SRB assay; conditions: SF-268, 48 h, read-out: GI
SW-620 = assay: Growth inhibition of Homo sapiens (human) SW620 cells at 10 uM after 48 hr by SRB assay; conditions: SW-620, 48 h, read-out: GI
UACC-257 = assay: Growth inhibition of Homo sapiens (human) UACC257 cells at 10 uM after 48 hr by SRB assay; conditions: UACC-257, 48 h, read-out: GI
M14 = assay: Growth inhibition of Homo sapiens (human) M14 cells at 10 uM after 48 hr by SRB assay; conditions: M14, 48 h, read-out: GI
SK-MEL-2 = assay: Growth inhibition of Homo sapiens (human) SK-MEL-2 cells at 10 uM after 48 hr by SRB assay; conditions: SK-MEL-2, 48 h, read-out: GI
MDA-MB-231 = assay: Growth inhibition of Homo sapiens (human) MDA-MB-231/ATCC cells at 10 uM after 48 hr by SRB assay; conditions: MDA-MB-231, 48 h, read-out: GI
NCI-H322M = assay: Growth inhibition of Homo sapiens (human) NCI-H322M cells at 10 uM after 48 hr by SRB assay; conditions: read-out: GI
SR = assay: Growth inhibition of Homo sapiens (human) SR cells at 10 uM after 48 hr by SRB assay; conditions: read-out: GI
NCI-H226 [4] = assay: Growth inhibition of Homo sapiens (human) NCI-H226 cells at 10 uM after 48 hr by SRB assay; conditions: NCI-H226, 48 h, read-out: GI

| SMILES | GI50 (MDA-MB-435) [µM] | TGI (MDA-MB-435) [µM] | CC50 (MDA-MB-435) [µM] | inhibition of growth at 10 µM (NCI-H522) [%] | inhibition of growth at 10 µM (COLO 205) [%] | inhibition of growth at 10 µM (OVCAR-4) [%] | inhibition of growth at 10 µM (SK-MEL-28 [1]) [%] | inhibition of growth at 10 µM (RPMI-8226) [%] | inhibition of growth at 10 µM (EKVX) [%] | inhibition of growth at 10 µM (A498) [%] | inhibition of growth at 10 µM (SK-MEL-5) [%] | GI50 (NCI-H226 [2]) [µM] | TGI (NCI-H226 [2]) [µM] | CC50 (NCI-H226 [2]) [µM] | GI50 (SK-MEL-28 [3]) [µM] | LC50 (concentration killing 50% of cells) (SK-MEL-28 [3]) [µM] | TGI (SK-MEL-28 [3]) [µM] | inhibition of growth at 10 µM (CAKI-1) [%] | inhibition of growth at 10 µM (SW-620) [%] | inhibition of growth at 10 µM (M14) [%] | other results |
| --- | --- | --- | --- | --- | --- | --- | --- | --- | --- | --- | --- | --- | --- | --- | --- | --- | --- | --- | --- | --- | --- |
| COc1ccc(OC)c(/C=C/C(=O)N/N=C/c2ccc(Cl)cc2)c1 | 0.0311 | 0.0988 | > 100 | 136 | 149 | 59.8 | 61.2 | 78.7 | 56.9 | 87.5 | 69.4 | 0.979 | > 100 | > 100 | 0.372 | > 100 | > 100 | 58.2 | 80.1 | 134 | inhibition of growth at 10 µM (OVCAR-5): 71.6%; inhibition of growth at 10 µM (DU-145): 85.2%; inhibition of growth at 10 µM (NCI/ADR-RES): 96.2%; inhibition of growth at 10 µM (SF-268): 66.8%; inhibition of growth at 10 µM (UACC-257): 47%; inhibition of growth at 10 µM (SK-MEL-2): 77.7%; inhibition of growth at 10 µM (MDA-MB-231): 71.9%; inhibition of growth at 10 µM (NCI-H322M): 58.7% |
| COc1ccc(OC)c(/C=C/c2nnc(S)n2-c2ccc(Cl)cc2)c1 | 2.83 | > 100 | > 100 |  |  |  |  |  |  |  |  |  |  |  | 11.1 | > 100 | > 100 |  | 49.6 | 69 | inhibition of growth at 10 µM (SR): 61.7% |
| COc1ccc(OC)c(/C=C/c2nnc(Nc3ccc(Cl)cc3)o2)c1 | 37 | > 100 | > 100 |  |  | 116 |  |  |  |  |  |  |  |  | 26.8 | > 100 | > 100 |  | 33.3 |  | inhibition of growth at 10 µM (NCI-H226 [4]): 43.9%; inhibition of growth at 10 µM (NCI-H322M): 41.4% |
| COc1ccc(OC)c(/C=C/C(=O)N/N=C/c2ccccc2)c1 | 0.283 | 1.98 | > 100 | 115 | 57.2 |  | 34.5 | 45.6 | 36 | 61.3 | 69.2 | 30.8 | > 100 | > 100 | 8.89 | > 100 | > 100 | 52.2 | 71.3 | 72.2 | inhibition of growth at 10 µM (NCI/ADR-RES): 91.5%; inhibition of growth at 10 µM (SF-268): 39.3%; inhibition of growth at 10 µM (UACC-257): 48.7%; inhibition of growth at 10 µM (SK-MEL-2): 101% |
